# Experimental data from ChEMBL document CHEMBL5360532, “Current scenario of quinolone hybrids with potential antibacterial activity against ESKAPE pathogens” (Eur J Med Chem, 2023).
# Experiments:
# Format in all cases: functional
# [1] = system: Staphylococcus epidermidis; assay: Antibacterial activity against Staphylococcus epidermidis ATCC 12228 assessed as bacterial growth inhibition by agar dilution method
# Bacillus subtilis = assay: Antibacterial activity against Bacillus subtilis PTCC 1023 assessed as bacterial growth inhibition by agar dilution method
# Staphylococcus aureus [2] = assay: Antibacterial activity against Staphylococcus aureus ATCC 6538p assessed as bacterial growth inhibition by agar dilution method
# Klebsiella pneumoniae [3] = assay: Antibacterial activity against Klebsiella pneumoniae ATCC 10031 assessed as bacterial growth inhibition by agar dilution method
# Escherichia coli [4] = assay: Antibacterial activity against Escherichia coli ATCC 8739 assessed as bacterial growth inhibition by agar dilution method
# Enterobacter cloacae = assay: Antibacterial activity against Enterobacter cloacae PTCC 1003 assessed as bacterial growth inhibition by agar dilution method
# Staphylococcus aureus [5] = assay: Antibacterial activity against Staphylococcus aureus ATCC 25923 assessed as bacterial growth inhibition by agar dilution assay
# Escherichia coli [6] = assay: Antibacterial activity against Escherichia coli ATCC 25922 assessed as bacterial growth inhibition by agar dilution assay
# Staphylococcus aureus [7] = assay: Antibacterial activity against Staphylococcus aureus assessed as bacterial growth inhibition by agar dilution assay
# Staphylococcus aureus [8] = assay: Antibacterial activity against Staphylococcus aureus ATCC 29213 assessed as bacterial growth inhibition by agar dilution assay
# Pseudomonas aeruginosa [9] = assay: Antibacterial activity against Pseudomonas aeruginosa ATCC 27853 assessed as bacterial growth inhibition by agar dilution assay
# Acinetobacter baumannii = assay: Antibacterial activity against Acinetobacter baumannii assessed as bacterial growth inhibition by agar dilution assay
# Klebsiella pneumoniae [10] = assay: Antibacterial activity against Klebsiella pneumoniae assessed as bacterial growth inhibition by agar dilution assay
# Staphylococcus aureus [11] = assay: Antibacterial activity against methicillin resistant Staphylococcus aureus assessed as bacterial growth inhibition by agar dilution assay
# Staphylococcus aureus [12] = assay: Antibacterial activity against methicillin resistant Staphylococcus aureus assessed as bacterial growth inhibition measured after 24 hrs by serial dilution method
# Escherichia coli [13] = assay: Antibacterial activity against Escherichia coli assessed as bacterial growth inhibition measured after 24 hrs by serial dilution method
# Escherichia coli [14] = assay: Antibacterial activity against Escherichia coli assessed as zone of inhibition at 250 ug/ml by agar well diffusion assay; details: read-out: IZ
# Klebsiella pneumoniae [15] = assay: Antibacterial activity against Klebsiella pneumoniae assessed as zone of inhibition at 250 ug/ml by agar well diffusion assay; details: read-out: IZ
# Staphylococcus aureus [16] = assay: Antibacterial activity against Staphylococcus aureus assessed as zone of inhibition at 250 ug/ml by agar well diffusion assay; details: read-out: IZ
# Staphylococcus aureus [17] = assay: Antibacterial activity against vancomycin-intermediate methicillin resistant Staphylococcus aureus ATCC 700788 assessed as bacterial growth inhibition measured after 16 to 18 hrs by serial dilution method; details: time 16-18 hrs
# Pseudomonas aeruginosa [18] = assay: Antibacterial activity against Pseudomonas aeruginosa assessed as zone of inhibition at 250 ug/ml by agar well diffusion assay; details: read-out: IZ
# Pseudomonas aeruginosa [19] = assay: Antibacterial activity against Pseudomonas aeruginosa assessed as bacterial growth inhibition measured after 18 to 24 hrs by two fold serial dilution assay; details: time 18-24 hrs
# Klebsiella pneumoniae [20] = assay: Antibacterial activity against Klebsiella pneumoniae assessed as bacterial growth inhibition measured after 18 to 24 hrs by two fold serial dilution assay; details: time 18-24 hrs
# Staphylococcus aureus [21] = assay: Antibacterial activity against methicillin sensitive Staphylococcus aureus assessed as bacterial growth inhibition measured after 18 to 24 hrs by two fold serial dilution assay; details: time 18-24 hrs
# Escherichia coli [22] = assay: Antibacterial activity against Escherichia coli ATCC35218 assessed as bacterial growth inhibition measured after 18 to 24 hrs inhibition by broth microdilution assay; details: time 18-24 hrs
# Pseudomonas aeruginosa [23] = assay: Antibacterial activity against Pseudomonas aeruginosa assessed as bacterial growth inhibition by broth microdilution assay
# Escherichia coli [24] = assay: Antibacterial activity against Escherichia coli assessed as bacterial growth inhibition measured after 18 to 24 hrs by two fold serial dilution assay; details: time 18-24 hrs
# Candida albicans = assay: Antifungal activity against Candida albicans assessed as fungal growth inhibition measured after 24 hrs by agar cup diffusion assay
# Aspergillus fumigatus = assay: Antifungal activity against Aspergillus fumigatus assessed as fungal growth inhibition by agar cup diffusion assay
# Aspergillus niger = assay: Antifungal activity against Aspergillus niger assessed as fungal growth inhibition by agar cup diffusion assay
smiles,measurement,setting,value
CCOC(=O)C(C(=O)OCC)C(=O)c1cn(C2CC2)c2cc(N3CCN(/N=N/c4nc(OC)cc(OC)n4)CC3)c(F)cc2c1=O,MIC,[1],0.015 µg/mL
same,MIC,Bacillus subtilis,0.015 µg/mL
same,MIC,Staphylococcus aureus [2],0.015 µg/mL
same,MIC,Klebsiella pneumoniae [3],0.015 µg/mL
same,MIC,Escherichia coli [4],0.015 µg/mL
same,MIC,Enterobacter cloacae,0.015 µg/mL
CCOC(=O)c1cn(Cc2nc3ccccc3n2Cc2ccccc2F)c2cc(Cl)c(F)cc2c1=O,MIC,Staphylococcus aureus [5],1 µg/mL
same,MIC,Escherichia coli [6],1 µg/mL
same,MIC,Staphylococcus aureus [7],1 µg/mL
same,MIC,Staphylococcus aureus [8],1 µg/mL
same,MIC,Pseudomonas aeruginosa [9],1 µg/mL
same,MIC,Acinetobacter baumannii,1 µg/mL
same,MIC,Klebsiella pneumoniae [10],1 µg/mL
same,MIC,Staphylococcus aureus [11],1 µg/mL
COc1c(N2C[C@@H]3CCCN[C@@H]3C2)c(F)cc2c(=O)c(C(=O)O)cn(C3CC3)c12 [MOXIFLOXACIN],MIC,Staphylococcus aureus [12],0.078 µg/mL
same,MIC,Escherichia coli [13],0.078 µg/mL
Cc1ncc([N+](=O)[O-])n1CC(C)OC(=O)c1cn(C2CC2)c2cc(N3CCNCC3)c(F)cc2c1=O (stereo unspecified),zone of inhibition at 250 µg/mL,Escherichia coli [14],25 mm
same,zone of inhibition at 250 µg/mL,Klebsiella pneumoniae [15],25 mm
same,zone of inhibition at 250 µg/mL,Staphylococcus aureus [16],25 mm
same,MIC,Staphylococcus aureus [17],≤ 0.17 µg/mL
same,zone of inhibition at 250 µg/mL,Pseudomonas aeruginosa [18],25 mm
O=C1C(=O)N(Cc2cn(CC(=O)N3CCN(c4cc5c(cc4F)c(=O)c(C(=O)O)cn5C4CC4)CC3)nn2)c2ccc(F)cc21,MIC,Pseudomonas aeruginosa [19],≤ 0.03 µg/mL
same,MIC,Klebsiella pneumoniae [20],≤ 0.03 µg/mL
same,MIC,Staphylococcus aureus [21],≤ 0.03 µg/mL
same,MIC,Escherichia coli [22],≤ 0.03 µg/mL
same,MIC,Pseudomonas aeruginosa [23],≤ 0.03 µg/mL
same,MIC,Escherichia coli [24],≤ 0.03 µg/mL
CC(=O)N1CCN(c2ccc(OCC3COC(Cn4ccnc4)(c4ccc(Cl)cc4Cl)O3)cc2)CC1 (stereo unspecified) [KETOCONAZOLE],MIC,Candida albicans,2.6 µg/mL
same,MIC,Aspergillus fumigatus,11.4 µg/mL
same,MIC,Aspergillus niger,10.8 µg/mL
CCOC(=O)c1cn(Cc2nc3ccccc3n2Cc2ccc(Cl)cc2Cl)c2cc(Cl)c(F)cc2c1=O,MIC,Staphylococcus aureus [5],1 µg/mL
same,MIC,Escherichia coli [6],1 µg/mL
same,MIC,Staphylococcus aureus [7],4 µg/mL
same,MIC,Staphylococcus aureus [8],1 µg/mL
same,MIC,Pseudomonas aeruginosa [9],4 µg/mL
same,MIC,Acinetobacter baumannii,4 µg/mL
same,MIC,Klebsiella pneumoniae [10],1 µg/mL
same,MIC,Staphylococcus aureus [11],4 µg/mL
COc1c(N2C[C@H]3CCCN(C(=O)Cn4cc(CN5C(=O)C(=O)c6ccccc65)nn4)[C@H]3C2)c(F)cc2c(=O)c(C(=O)O)cn(C3CC3)c12,MIC,Pseudomonas aeruginosa [19],≤ 0.03 µg/mL
same,MIC,Klebsiella pneumoniae [20],≤ 0.03 µg/mL
same,MIC,Staphylococcus aureus [21],≤ 0.03 µg/mL
same,MIC,Escherichia coli [22],≤ 0.03 µg/mL
same,MIC,Pseudomonas aeruginosa [23],≤ 0.03 µg/mL
same,MIC,Escherichia coli [24],≤ 0.03 µg/mL
COc1c(N2CCCC(N(C)C(=O)c3cccnc3)C2)c(F)cc2c(=O)c(C(=O)O)cn(C3CC3)c12 (stereo unspecified),MIC,Staphylococcus aureus [12],0.078 µg/mL
same,MIC,Escherichia coli [13],0.078 µg/mL
